# Columns and labels:
# [1] = test system: cultured retinal neurons of rat fetus; test: glutamate-induced death of cultured retinal neurons of rat fetus (trypan blue exclusion); assay type: cell-based; settings: for Survival rate of cultured retinal neurons (%): 10 min, then 1 h drug-free, untreated 67, glutamate alone 46
# Experimental: (1) Topiramate's Action on the Glutamate-Induced Death of Cultured Retinal Neurons of Rat Fetus: From rat fetuses (aged 17 to 19 days), retinal cells were taken out and isolated, and were cultured on a polyethylene-imine-coated plastic-covered slip in a 10% bovine fetal serum-containing Eagle's basal medium for seven days. From the eighth day, they were cultured in a 10% equine serum-containing Eagle's basal medium. On the sixth day of culture, cytosine arabinoside (10 μM) was added to inhibit the proliferation of non-neuronal cells. Next, the cells were incubated (37° C., 5% CO2.95% air) for 10 minutes in a medium which had been prepared by adding glutamate (1 mM) and topiramate in various concentrations (10 nM˜100 μM) to serum-free Eagle's basal medium. Then, cells were returned to serum-free Eagle's basal medium which contained neither glutamate nor topiramate, and were incubated (37° C., 5% CO2.95% air) for one hour, and, thereafter, toxicity was determined by trypan blue exclusion method. In detail, cells were immobilized with 10% neutral formalin solution, and were washed with physiological saline. Then, cells were dyed by adding trypan blue solution, and, thus, the number of cells was counted by phase-contrast microscope. Cells which had been dyed with trypan blue were regarded as dead, and non-dyed cells as surviving, and, thus, the survival rate of cultured cells was found from the proportion of the number of surviving cells to the number of total cells counted (at least 200). The group to which 1 mM of glutamate had been added and the group to which both 1 mM of glutamate and topiramate in various concentrations had been added are respectively called “Single 1 mM glutamate added group” and “1 mM glutamate+topiramate (various concentrations) added group”. Results concerning these groups were compared with the corresponding measured values of “Untreated group”, i.e., a group which had received no treatments. The values in the table are average values.
# [2] = test system: ischemia-induced retinal damage; test: ischemia-induced retinal damage in rat (ischemia-reperfusion, retinal histology); assay type: in vivo
# Excerpt: (2) Topiramate's Action on Ischemia-Induced Retinal Damage in Rat:
# Anesthesia was indued in rat with 3% halothane, and, then, anesthesia was maintained with 1% halothane (halothane was vaporized with 0.5 l oxygen/min. and 1.5 l dinitrogen monoxider/min.). Next, mydriasis was caused in right eye with atropine, and, then, 30 G injection needle which was connected with a vessel of physiological saline for instillation via a tube hung from the ceiling was stuck into anterior chamber, and, thus, a 130 mmHg hydraulic pressure was given, and ischemia was thereby induced After 45 minutes, the injection needle was removed, and retinal blood flow was allowed to make reperfusion. Administration was conducted by intraperitoneal injection into rats with physiological saline (solvent) and topiramate (200 mg/kg body weight) dissolved (partially suspended) in solvent, respectively. The administration was carried out twice respectively, i.e., two hours before and immediately after inschemia. Seven days after the administration, eyeball was taken out, immobilized overnight in 2% paraformaldehyde-2.5% glutaraldehyde, subjected to paraffin embedding, and was sectioned, and, thus, retinal slices (with a thickness of 3 μm) stained with hematoxylin-eosin (HE) were prepared. From eight slices which had been cut with an interval of 60 μm per one eyeball so that optic nerve head might be covered, three slices were optionally selected. With regard to thus selected three slices, there was taken a photograph of retina in the range of 1 to 1.5 mm on the left or right side from optic nerve head, and, thus, the number of cells in ganglion cell layer (GCL) in retina and the thickness of inner plaxiform layer (IPL) were measured. The group to which solvent had been administered and ischemia had been induced and the group to which topiramate dissolved in solvent had been administered and ischemia had been induced are respectively called “Solvent-administered group” and “Topiramate-administered group”. […]
smiles,measurement,setting,value
"CC1(C)O[C@@H]2[C@@H](CO[C@@]3(COS(N)(=O)=O)OC(C)(C)O[C@@H]23)O1 [topiramate, 2,3:4,5-bis-O-(1-methylethylidene)-β-D-fructopyranose sulfamate]",Survival rate of cultured retinal neurons (%),[1]; 1 mM glutamate + 10 nM topiramate,50%
same,Survival rate of cultured retinal neurons (%),[1]; 1 mM glutamate + 100 nM topiramate,58%
same,Survival rate of cultured retinal neurons (%),[1]; 1 mM glutamate + 1 μM topiramate,60%
same,Survival rate of cultured retinal neurons (%),[1]; 1 mM glutamate + 10 μM topiramate,64%
same,Survival rate of cultured retinal neurons (%),[1]; 1 mM glutamate + 100 μM topiramate,65%
same,effect on death (apoptosis) of cultured retinal neurons,"[1]; 1 mM glutamate, topiramate 10 nM-100 μM, summary of Table 1",remarkably inhibit the death (apoptosis) of cultured retinal neurons in a concentration-dependent manner
same,Thickness of IPL (μm),"[2]; 200 mg/kg intraperitoneal twice (2 h before and immediately after 45 min ischemia), 7 days after, normal 49, solvent 21",30 μm
same,Number of cells in GCL (number/mm),"[2]; 200 mg/kg intraperitoneal twice (2 h before and immediately after 45 min ischemia), 7 days after, normal 68, solvent 36",44 number/mm
same,effect on decrease of number of cells in ganglion cell layer and thinning of inner plexiform layer,"[2]; 200 mg/kg intraperitoneal, summary of Table 2",excellent in effectively preventing both the decrease of number of cells in ganglion cell layer and the thinning of inner plexiform layer
